These are literature values, as cited in PubChem BioAssay AID1259409 (Chemical Carcinogenesis Research Information System (CCRIS), 2018).

In the series the test system is rodent chemically induced tumor inhibition, incidence and multiplicity. Kind of series: CCRIS tumor inhibitor studies.

SMILES strings stand for the structures.

Regarding `CC1=C(/C=C/C(C)=C/C=C/C(C)=C/C(=O)NCC(C)O)C(C)(C)CCC1` (stereo unspecified), the “tumour outcome (control, treated, inhibition, significance)” value was 31/55 (56%), 20/55 (36%), 36%, p<0.05 (Carcinogen: N-BUTYL-N-(4-HYDROXYBUTYL)NITROSAMINE, 3817-11-6, Dose [Inhibitor]: 1.5 MMOL/KG DIET DAILY FOR 108 D STARTING ONE WK AFTER THE FINAL CARCINOGEN DOSE (STUDY DURATION: 171 D), Route [Inhibitor]: ORAL, Species: MOUSE, Strain/Sex: BDF/MALE, Target Tissue: Type of Lesion: URINARY BLADDER: TRANSITIONAL CELL CARCINOMA, Dose [Carcinogen]: 5 MG, 2/WK FOR 9 WK, Promoter: NONE USED); 31/55 (56%), 20/55 (36%), 36%, p<0.05 (Carcinogen: N-BUTYL-N-(4-HYDROXYBUTYL)NITROSAMINE, 3817-11-6, Dose [Inhibitor]: 1.5 MMOL/KG/D IN DIET FOR 108 D STARTING 1 WK POST CARCINOGEN TREATMENT (STUDY DURATION: 171 D), Route [Inhibitor]: ORAL, Species: MOUSE, Strain/Sex: BDF/MALE, Target Tissue: Type of Lesion: URINARY BLADDER: TRANSITIONAL CELL CARCINOMA, Dose [Carcinogen]: 5 MG 2/WK FOR 9 WK, Promoter: NONE USED); 5%, 19%, -280%, not calculated (Carcinogen: N-NITROSOBIS(2-OXOPROPYL)AMINE, 60599-38-4, Dose [Inhibitor]: 0.25 MMOL/KG OF DIET FOR 364 D STARTING 2 WK AFTER LAST CARCINOGEN DOSE (STUDY DURATION: 55 WK), Route [Inhibitor]: ORAL, Species: HAMSTER, Strain/Sex: SYRIAN/FEMALE, Target Tissue: Type of Lesion: LIVER: CARCINOMA, Dose [Carcinogen]: 20 MG/KG INJECTION GIVEN TWICE 1 WK APART, Promoter: NONE USED); 38%, 15%, 61%, not calculated (Carcinogen: N-NITROSOBIS(2-OXOPROPYL)AMINE, 60599-38-4, Dose [Inhibitor]: 0.25 MMOL/KG OF DIET FOR 364 D STARTING 2 WK AFTER LAST CARCINOGEN DOSE (STUDY DURATION: 55 WK), Route [Inhibitor]: ORAL, Species: HAMSTER, Strain/Sex: SYRIAN/FEMALE, Target Tissue: Type of Lesion: PANCREAS: CARCINOMA, Dose [Carcinogen]: 20 MG/KG INJECTION GIVEN TWICE 1 WK APART, Promoter: NONE USED); 7%, 32%, -357%, not calculated (Carcinogen: N-NITROSOBIS(2-OXOPROPYL)AMINE, 60599-38-4, Dose [Inhibitor]: 0.25 MMOL/KG OF DIET FOR 364 D STARTING 2 WK AFTER LAST CARCINOGEN DOSE (STUDY DURATION: 55 WK), Route [Inhibitor]: ORAL, Species: HAMSTER, Strain/Sex: SYRIAN/MALE, Target Tissue: Type of Lesion: LIVER: CARCINOMA, Dose [Carcinogen]: 20 MG/KG INJECTION GIVEN TWICE 1 WK APART, Promoter: NONE USED); 34%, 24%, 29%, not calculated (Carcinogen: N-NITROSOBIS(2-OXOPROPYL)AMINE, 60599-38-4, Dose [Inhibitor]: 0.25 MMOL/KG OF DIET FOR 364 D STARTING 2 WK AFTER LAST CARCINOGEN DOSE (STUDY DURATION: 55 WK), Route [Inhibitor]: ORAL, Species: HAMSTER, Strain/Sex: SYRIAN/MALE, Target Tissue: Type of Lesion: PANCREAS: CARCINOMA, Dose [Carcinogen]: 20 MG/KG INJECTION GIVEN TWICE 1 WK APART, Promoter: NONE USED). Moreover, the “tumour outcome (control, treated, inhibition, significance)” value (Carcinogen: N-NITROSOBIS(2-OXOPROPYL)AMINE, 60599-38-4, Dose [Inhibitor]: 0.5 MMOL/KG DIET FOR 357 D STARTING 2 WK AFTER LAST CARCINOGEN DOSE AND INTERRUPTED BY A 1 WK REST PERIOD OF VEHICLE ONL, Route [Inhibitor]: ORAL, Species: HAMSTER, Strain/Sex: SYRIAN/FEMALE, Target Tissue: Type of Lesion: LIVER: HEPATOCELLULAR CARCINOMA, Dose [Carcinogen]: 20 MG/KG INJECTION GIVEN TWICE 1 WK APART, Promoter: NONE USED) was 5%, 12%, -140%, not calculated; the “tumour outcome (control, treated, inhibition, significance)” value (Carcinogen: N-NITROSOBIS(2-OXOPROPYL)AMINE, 60599-38-4, Dose [Inhibitor]: 0.5 MMOL/KG DIET FOR 357 D STARTING 2 WK AFTER LAST CARCINOGEN DOSE AND INTERRUPTED BY A 1 WK REST PERIOD OF VEHICLE ONL, Route [Inhibitor]: ORAL, Species: HAMSTER, Strain/Sex: SYRIAN/FEMALE, Target Tissue: Type of Lesion: PANCREAS: CARCINOMA, Dose [Carcinogen]: 20 MG/KG INJECTION GIVEN TWICE 1 WK APART, Promoter: NONE USED) is 38%, 25%, 34%, not calculated; the “tumour outcome (control, treated, inhibition, significance)” value (Carcinogen: N-NITROSOBIS(2-OXOPROPYL)AMINE, 60599-38-4, Dose [Inhibitor]: 0.5 MMOL/KG DIET FOR 357 D STARTING 2 WK AFTER LAST CARCINOGEN DOSE AND INTERRUPTED BY A 1 WK REST PERIOD OF VEHICLE ONL, Route [Inhibitor]: ORAL, Species: HAMSTER, Strain/Sex: SYRIAN/MALE, Target Tissue: Type of Lesion: LIVER: HEPATOCELLULAR CARCINOMA, Dose [Carcinogen]: 20 MG/KG INJECTION GIVEN TWICE 1 WK APART, Promoter: NONE USED) was 7%, 12%, -71%, not calculated; the “tumour outcome (control, treated, inhibition, significance)” value (Carcinogen: N-NITROSOBIS(2-OXOPROPYL)AMINE, 60599-38-4, Dose [Inhibitor]: 0.5 MMOL/KG DIET FOR 357 D STARTING 2 WK AFTER LAST CARCINOGEN DOSE AND INTERRUPTED BY A 1 WK REST PERIOD OF VEHICLE ONL, Route [Inhibitor]: ORAL, Species: HAMSTER, Strain/Sex: SYRIAN/MALE, Target Tissue: Type of Lesion: PANCREAS: CARCINOMA, Dose [Carcinogen]: 20 MG/KG INJECTION GIVEN TWICE 1 WK APART, Promoter: NONE USED) was 34%, 29%, 15%, not calculated.
In the case of `CCCCCCCCCCCCCCCC`, the “tumour outcome (control, treated, inhibition, significance)” value was 16/50 (32%), 5/50 (10%), 69%, not calculated (Carcinogen: BENZO[A]PYRENE, 50-32-8, Dose [Inhibitor]: 25 MG IN 0.1 ML ACETONE 3/WK ADMINISTERED SIMULTANEOUSLY WITH CARCINOGEN FOR DURATION OF STUDY (STUDY DURATION: 440 D), Route [Inhibitor]: DERMAL, Species: MOUSE, Strain/Sex: ICR/FEMALE, Target Tissue: Type of Lesion: SKIN: PAPILLOMA, Dose [Carcinogen]: 5 UG IN 0.1 ML ACETONE 3/WK FOR DURATION OF STUDY, Promoter: NONE USED) and 12/50 (24%), 2/50 (4%), 83%, not calculated (Carcinogen: BENZO[A]PYRENE, 50-32-8, Dose [Inhibitor]: 25 MG IN 0.1 ML ACETONE 3/WK ADMINISTERED SIMULTANEOUSLY WITH CARCINOGEN FOR DURATION OF STUDY (STUDY DURATION: 440 D), Route [Inhibitor]: DERMAL, Species: MOUSE, Strain/Sex: ICR/FEMALE, Target Tissue: Type of Lesion: SKIN: SQUAMOUS CARCINOMA, Dose [Carcinogen]: 5 UG IN 0.1 ML ACETONE 3/WK FOR DURATION OF STUDY, Promoter: NONE USED).
On to `O=c1c(O)c(-c2cc(O)c(O)c(O)c2)oc2cc(O)cc(O)c12`, for which the “tumour outcome (control, treated, inhibition, significance)” value is reported as 87%, 85%, 2%, not calculated (Carcinogen: 7,12-DIMETHYLBENZ[A]ANTHRACENE, 57-97-6, Dose [Inhibitor]: 100 UG IN 0.2 ML ACETONE ONCE 5 MIN BEFORE CARCINOGEN TREATMENT (STUDY DURATION: 31 WK), Route [Inhibitor]: DERMAL, Species: MOUSE, Strain/Sex: CD-1/FEMALE, Target Tissue: Type of Lesion: SKIN: PAPILLOMA, Dose [Carcinogen]: 10 NMOL IN 0.2 ML ACETONE ONCE, Promoter: 12-O-TETRADECANOYLPHORBOL-13-ACETATE, 16561-29-8); 93%, 65%, 30%, p<0.05 (Carcinogen: (+/-)-7BETA,8ALPHA-DIHYDROXY-9ALPHA,10ALPHA-EPOXY-7,8,9,10-TETRAHYDROBENZO[A]PYR ENE, 58917-67-2, Dose [Inhibitor]: 0, 1400 NMOL (TOTAL DOSE) 10 MIN PRIOR TO CARCINOGEN DOSE INJECTED AS 1/7, 2/7, AND 4/7 OF THE TOTAL ON DAYS 1, 8, AND 1, Route [Inhibitor]: INTRAPERITONEAL, Species: MOUSE, Strain/Sex: ICR/MALE,FEMALE, Target Tissue: Type of Lesion: LUNG: TUMOR, Dose [Carcinogen]: 30 NMOL (TOTAL DOSE) INJECTED IN DOSES OF 1/7, 2/7, AND 4/7 ON DAYS 1,8, AND 15 OF LIFE, RESPECTIVELY, Promoter: NONE USED); 63%, 36%, 43%, p<0.05 (Carcinogen: (+/-)-7BETA,8ALPHA-DIHYDROXY-9ALPHA,10ALPHA-EPOXY-7,8,9,10-TETRAHYDROBENZO[A]PYR ENE, 58917-67-2, Dose [Inhibitor]: 0, 1400 NMOL (TOTAL DOSE) APPLIED 10 MIN PRIOR TO CARCINOGEN DOSE INJECTED AS 1/7, 2/7, AND 4/7 OF THE TOTAL ON DAYS 1,, Route [Inhibitor]: INTRAPERITONEAL, Species: MOUSE, Strain/Sex: ICR/MALE,FEMALE, Target Tissue: Type of Lesion: LUNG: TUMOR, Dose [Carcinogen]: 15 NMOL (TOTAL DOSE) INJECTED IN DOSES OF 1/7, 2/7, AND 4/7 ON DAYS 1, 8, AND 15 OF LIFE, RESPECTIVELY, Promoter: NONE USED); 73%, 79%, -8%, not significant (Carcinogen: BENZO[A]PYRENE, 50-32-8, Dose [Inhibitor]: 0, 1400 NMOL (TOTAL DOSE) APPLIED 10 MIN PRIOR TO CARCINOGEN DOSE INJECTED AS 1/7, 2/7, AND 4/7 OF THE TOTAL ON DAYS 1,, Route [Inhibitor]: INTRAPERITONEAL, Species: MOUSE, Strain/Sex: ICR/MALE,FEMALE, Target Tissue: Type of Lesion: LUNG: TUMOR, Dose [Carcinogen]: 450 NMOL (TOTAL DOSE) INJECTED IN DOSES OF 1/7, 2/7, AND 4/7 ON DAYS 1, 8, AND 15 OF LIFE, RESPECTIVELY, Promoter: NONE USED).
